Test results as given in ChEMBL document CHEMBL1201862, “PubChem BioAssay data set” (2004).
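The compound was tested at five concentrations on cells cultured in 96-well plates, with a 48-hour exposure period. GI50 is the concentration that inhibits growth by half.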 Active and inactive are the calls of the source. Cut-off read from the data, not from the text of the source: active = GI50 up to about 1.1 µM and inactive = higher.

Columns and labels:
Experiment in all cases: NCI-60 cell line screen, 48 h
[1] = system: 786-0
[2] = system: A498
[3] = system: A549
[4] = system: ACHN
[5] = system: BT-549
[6] = system: CAKI-1
[7] = system: CCRF-CEM
[8] = system: COLO 205
[9] = system: DU-145
[10] = system: EKVX
[11] = system: HCC 2998
[12] = system: HCT-116
[13] = system: HCT-15
[14] = system: HL-60
[15] = system: HOP-62
[16] = system: HOP-92
[17] = system: HT-29
[18] = system: Hs-578T
[19] = system: IGROV-1
[20] = system: K562
[21] = system: KM12
[22] = system: LOX IMVI
[23] = system: M14
[24] = system: MCF7
[25] = system: MDA-MB-231
[26] = system: MDA-MB-435
[27] = system: MOLT-4
[28] = system: Malme-3M
[29] = system: NCI-H226
[30] = system: NCI-H23
[31] = system: NCI-H460
[32] = system: NCI-H522
[33] = system: NCI/ADR-RES
[34] = system: OVCAR-3
[35] = system: OVCAR-4
[36] = system: OVCAR-5
[37] = system: OVCAR-8
[38] = system: PC-3
[39] = system: RPMI-8226
[40] = system: RXF 393
[41] = system: SF-268
[42] = system: SF-295
[43] = system: SF-539
[44] = system: SK-MEL-28
[45] = system: SK-MEL-2
[46] = system: SK-MEL-5
[47] = system: SK-OV-3
[48] = system: SN12C
[49] = system: SNB-19
[50] = system: SNB-75
[51] = system: SR
[52] = system: SW-620
[53] = system: T47D
[54] = system: TK-10
[55] = system: U-251
[56] = system: UACC-257
[57] = system: UACC-62
[58] = system: UO-31

**Q.** What does the source list for `COc1cc2c(cc1OCCCC(=O)Nc1cc(C(=O)Nc3cc(C(=O)Nc4cc(C(=O)NCCCN(C)C)n(C)n4)n(C)n3)n(C)n1)N=CC1CCCN1C2=O` (stereo not drawn)?
**A.** GI50 [1]: 4.81 µM (inactive); GI50 [2]: 23 µM (inactive); GI50 [3]: 55.2 µM (inactive); GI50 [4]: 13.2 µM (inactive); GI50 [5]: 12.4 µM (inactive); GI50 [6]: 18.2 µM (inactive); GI50 [7]: 2.72 µM (inactive); GI50 [8]: 3.53 µM (inactive); GI50 [9]: 35.4 µM (inactive); GI50 [10]: > 100 µM (inactive); GI50 [11]: 41.9 µM (inactive); GI50 [12]: 60.8 µM (inactive); GI50 [13]: 5.69 µM; GI50 [14]: 6.14 µM (inactive); GI50 [15]: 45.5 µM (inactive); GI50 [16]: 4.68 µM (inactive); GI50 [17]: 20 µM (inactive); GI50 [18]: 39.5 µM (inactive); GI50 [19]: 2.96 µM (inactive); GI50 [20]: 4.43 µM (inactive); GI50 [21]: 21.1 µM (inactive); GI50 [22]: 3.07 µM (inactive); GI50 [23]: 28 µM (inactive); GI50 [24]: 21.1 µM (inactive); GI50 [25]: 24.2 µM (inactive); GI50 [26]: 20.1 µM (inactive); GI50 [27]: 3.01 µM (inactive); GI50 [28]: 10.8 µM (inactive); GI50 [29]: 28.4 µM (inactive); GI50 [30]: 26.5 µM (inactive); GI50 [31]: 41.4 µM (inactive); GI50 [32]: 1.69 µM (inactive); GI50 [33]: 31.8 µM (inactive); GI50 [34]: 29.9 µM (inactive); GI50 [35]: 16.1 µM (inactive); GI50 [36]: 32.6 µM (inactive); GI50 [37]: 32 µM (inactive); GI50 [38]: 31.3 µM (inactive); GI50 [39]: 5.74 µM (inactive); GI50 [40]: 22.4 µM (inactive); GI50 [41]: 31.2 µM (inactive); GI50 [42]: 32.5 µM (inactive); GI50 [43]: 26.2 µM (inactive); GI50 [44]: 13.4 µM (inactive); GI50 [45]: 24.8 µM (inactive); GI50 [46]: 19.5 µM (inactive); GI50 [47]: 45.2 µM (inactive); GI50 [48]: 21.1 µM (inactive); GI50 [49]: 18.3 µM (inactive); GI50 [50]: 27.9 µM (inactive); GI50 [51]: 2.77 µM (inactive); GI50 [52]: 5.21 µM (inactive); GI50 [53]: 56 µM (inactive); GI50 [54]: 20.7 µM (inactive); GI50 [55]: 9.77 µM (inactive); GI50 [56]: 19 µM (inactive); GI50 [57]: 20.3 µM (inactive); GI50 [58]: 4.39 µM (inactive)
